In patent US12209079B2 (GENERAL INCORPORATED ASSOCIATION PHARMA VALLEY PROJECT …, priority 2017, dated 2025):

Legend:
IDO in A431 cells = biological target: T1, IDO in A431 cells (Homo sapiens, UniProt P14902); assay: IDO cell-based assay, kynurenine production in IFN-γ stimulated A431 cells; settings: A-431, 24 h; final concentration of the compound 10 μM; rate relative to culture without compound
T1 construct: endogenous in cells; host or cells: A431 cells, IFN-γ stimulated
How it was run: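 A431 cells were cultured 24 h, then preincubated 1 h with compound in medium containing 178 μM L-tryptophan, and stimulated with IFN-γ (diluted to 100 ng/mL before addition) for 24 h. Kynurenine was measured by p-dimethylbenzaldehyde absorbance at 460 nm, background-subtracted, and expressed as % production versus no-compound control.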

TDO in A172 cells = biological target: T2, TDO in A172 cells (Homo sapiens, UniProt P48775); assay: TDO cell-based assay, kynurenine production in A172 cells; settings: A 172; final concentration of the compound 10 μM; rate relative to culture without compound
T2 construct: endogenous in cells; host or cells: A172 cells
How it was run: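 A172 cells were preincubated with compound for 1 h, then given L-tryptophan (final 524 μM) for 24 h at 37 °C. Kynurenine was read at 460 nm after p-dimethylbenzaldehyde/TCA reagent, background-subtracted, and expressed as % of no-compound production.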

[1] = tested on: subcutaneous CT-26WT syngeneic graft of large intestine cancer; assay: Drug efficacy test, combined use of IDO/TDO inhibitor and oxaliplatin, mice with subcutaneous CT-26WT syngeneic graft (Test Example 5); type: in vivo, mouse; settings: 40 mg/kg oral twice a day in 0.5% methyl cellulose, combined with oxaliplatin 10 mg/kg i.v.; Balb/c mice; FIG. 4
Method: Drug Efficacy Test on Combined Use of IDO/TDO Inhibitor and Oxaliplatin Using Mice with a Subcutaneous CT-26WT Syngeneic Graft of Large Intestine Cancer
5×10^5 cells of syngeneic large intestine cancer cell line CT26WT were subcutaneously transplanted to each of 6-week-old female Balb/c mice. The mice were divided into groups each involving 6 individuals 10 days later within a tumor size range of 41-427 mm^3. The oral administration (solvent for oral administration and 40 mg/kg each of epacadostat and compounds 37, 31, 7, 15, 1, 50, 52, 76, 95, 33, 49, 2, 10, 36, 103, 38 and 29 were administered twice a day at a 5-hour interval from days 1 to 5 and days 8 to 12) and intravenous injection (5% glucose solution and 10 mg/kg oxaliplatin were administered once a day on days 1 and 8) of each agent were started. Then, the major axis and minor axis of subcutaneous tumor were measured three times a week using calipers, and a mean and standard error of the mean of the ratios of the calculated volumes to the volumes at the administration start day in each group were plotted. The calculation expression was Volume (mm^3)=[[…]×Length (mm)]/2. The agent for oral administration was suspended in 0.5% methyl cellulose as a solvent for oral administration. The results are shown in FIG. 4 (if a plurality of experiments were conducted for the same agent, the results were combined).
• with the solid line: the solvent for oral administration and the 5% glucose solution, ▪ with the solid line: compound 37 and oxaliplatin, ▴ with the solid line: epacadostat and oxaliplatin, X with the solid line: compound 31 and oxaliplatin, ∘ with the solid line: the solvent for oral administration and oxaliplatin, □ with the solid line: compound 7 and oxaliplatin, Δ with the solid line: compound 15 and oxaliplatin, X with the solid line: compound 1 and oxaliplatin, • with the broken line: compound 50 and oxaliplatin, ▪ with the broken line: compound 52 and oxaliplatin, ▴ with the broken line: compound 76 and oxaliplatin, X with the broken line: compound 95 and oxaliplatin, ∘ with the broken line: compound 33 and oxaliplatin, □ with the broken line: compound 49 and oxaliplatin, Δ with the broken line: compound 2 and oxaliplatin, + with the solid line: compound 10 and oxaliplatin, rectangle with the solid line: compound 36 and oxaliplatin, • with the dotted line: compound 103 and oxaliplatin, ▪ with the dotted line: compound 38 and oxaliplatin, and ▴ with the dotted line: compound 29 and oxaliplatin.

T2 sequence (P48775 whole entry): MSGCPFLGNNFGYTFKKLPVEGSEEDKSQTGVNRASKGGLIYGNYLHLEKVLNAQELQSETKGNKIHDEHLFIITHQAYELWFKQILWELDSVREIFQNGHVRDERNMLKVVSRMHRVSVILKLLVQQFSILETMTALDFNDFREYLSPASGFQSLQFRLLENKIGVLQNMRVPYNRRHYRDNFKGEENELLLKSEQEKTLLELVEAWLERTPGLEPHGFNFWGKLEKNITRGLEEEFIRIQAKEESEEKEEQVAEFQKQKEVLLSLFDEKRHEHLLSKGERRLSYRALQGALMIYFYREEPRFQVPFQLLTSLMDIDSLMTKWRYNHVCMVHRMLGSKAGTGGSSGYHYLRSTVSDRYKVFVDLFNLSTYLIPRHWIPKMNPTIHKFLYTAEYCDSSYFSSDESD
T1 sequence (P14902 whole entry): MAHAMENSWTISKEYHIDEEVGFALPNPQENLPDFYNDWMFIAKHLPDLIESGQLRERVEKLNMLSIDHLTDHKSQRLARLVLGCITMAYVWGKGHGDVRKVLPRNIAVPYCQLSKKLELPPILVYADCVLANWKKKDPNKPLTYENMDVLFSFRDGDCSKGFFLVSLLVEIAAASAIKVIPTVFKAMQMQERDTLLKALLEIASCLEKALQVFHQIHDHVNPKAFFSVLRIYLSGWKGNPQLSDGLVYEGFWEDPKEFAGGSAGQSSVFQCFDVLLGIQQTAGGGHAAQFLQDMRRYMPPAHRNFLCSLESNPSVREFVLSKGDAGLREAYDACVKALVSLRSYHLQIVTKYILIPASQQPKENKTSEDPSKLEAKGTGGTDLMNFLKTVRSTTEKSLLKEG

Cl.Cl.N=C(N)SCc1ccccc1CSC(=N)N [Compound 1, 1,2-phenylenebis(methylene) dicarbamimidothioate dihydrochloride]
remaining activity at 10 µM (IDO in A431 cells): 11%
remaining activity at 10 µM (TDO in A172 cells): -3%
tumor growth (ratio of tumor volume to start day) [1]: can suppress tumor growth

Br.Br.N=C(N)SCc1ccc(F)cc1CSC(=N)N [Compound 2, (4-fluoro-1,2-phenylene)bis(methylene) dicarbamimidothioate dihydrobromide]
remaining activity at 10 µM (IDO in A431 cells): 7%
remaining activity at 10 µM (TDO in A172 cells): 7%
tumor growth (ratio of tumor volume to start day) [1]: can suppress tumor growth

Br.Br.N=C(N)SCc1ccc(Cl)cc1CSC(=N)N [Compound 7, (4-chloro-1,2-phenylene)bis(methylene) dicarbamimidothioate dihydrobromide]
remaining activity at 10 µM (IDO in A431 cells): 0%
remaining activity at 10 µM (TDO in A172 cells): -1%
tumor growth (ratio of tumor volume to start day) [1]: can suppress tumor growth

Br.Br.N=C(N)SCc1ccc(Br)cc1CSC(=N)N [Compound 10, (4-bromo-1,2-phenylene)bis(methylene) dicarbamimidothioate dihydrobromide]
remaining activity at 10 µM (IDO in A431 cells): -1%
remaining activity at 10 µM (TDO in A172 cells): 2%
tumor growth (ratio of tumor volume to start day) [1]: can suppress tumor growth

Br.Br.N=C(N)SCc1cscc1CSC(=N)N [Compound 15, thiophene-3,4-diylbis(methylene) dicarbamimidothioate dihydrobromide]
remaining activity at 10 µM (IDO in A431 cells): 12%
remaining activity at 10 µM (TDO in A172 cells): 7%
tumor growth (ratio of tumor volume to start day) [1]: can suppress tumor growth

c1ccc(CSC2=NCN(CC3CCCCC3)CN2)c(CSC2=NCN(CC3CCCCC3)CN2)c1 [Compound 29, 1,2-bis(((5-(cyclohexylmethyl)-1,4,5,6-tetrahydro-1,3,5-triazin-2-yl)thio)methyl)benzene]
remaining activity at 10 µM (IDO in A431 cells): 10%
remaining activity at 10 µM (TDO in A172 cells): 0%
tumor growth (ratio of tumor volume to start day) [1]: can suppress tumor growth

Br.Br.N=C(N)SCc1ccsc1CSC(=N)N [Compound 31, thiophene-2,3-diylbis(methylene) dicarbamimidothioate dihydrobromide]
remaining activity at 10 µM (IDO in A431 cells): 13%
remaining activity at 10 µM (TDO in A172 cells): 20%
tumor growth (ratio of tumor volume to start day) [1]: can suppress tumor growth

Cl.Cl.c1ccc(CCN2CN=C(SCc3cscc3CSC3=NCN(CCc4ccccc4)CN3)NC2)cc1 [Compound 33, 3,4-Bis{[(5-phenethyl-1,4,5,6-tetrahydro-1,3,5-triazin-2-yl)thio]methyl}thiophene dihydrochloride]
remaining activity at 10 µM (IDO in A431 cells): 3%
remaining activity at 10 µM (TDO in A172 cells): 4%
tumor growth (ratio of tumor volume to start day) [1]: can suppress tumor growth

Clc1cc(CSC2=NCN(CCc3ccccc3)CN2)c(CSC2=NCN(CCc3ccccc3)CN2)cc1Cl [Compound 37, 6,6′-(((4,5-Dichloro-1,2-phenylene)bis(methylene))bis(sulfanediyl))bis(3-phenethyl-1,2,3,4-tetrahydro-1,3,5-triazine)]
remaining activity at 10 µM (IDO in A431 cells): 1%
remaining activity at 10 µM (TDO in A172 cells): -9%
tumor growth (ratio of tumor volume to start day) [1]: can suppress tumor growth

N/C(=N\c1ccc(Br)cc1)SCc1ccc(Br)cc1CS/C(N)=N/c1ccc(Br)cc1 [Compound 49, (4-Bromo-1,2-phenylene)bis(methylene) (E,E)-bis(N′-(4-bromophenyl)carbamimidothioate)]
remaining activity at 10 µM (IDO in A431 cells): 4%
remaining activity at 10 µM (TDO in A172 cells): 8%
tumor growth (ratio of tumor volume to start day) [1]: can suppress tumor growth

Clc1cc(CSC2=NCN(CC3CCCCC3)CN2)c(CSC2=NCN(CC3CCCCC3)CN2)cc1Cl [Compound 50, 6,6′-(((4,5-Dichloro-1,2-phenylene)bis(methylene))bis(sulfanediyl))bis(3-(cyclohexylmethyl)-1,2,3,4-tetrahydro-1,3,5-triazine)]
remaining activity at 10 µM (IDO in A431 cells): 4%
remaining activity at 10 µM (TDO in A172 cells): 4%
tumor growth (ratio of tumor volume to start day) [1]: can suppress tumor growth

Brc1ccc(CSC2=NCN(CC3CCCCC3)CN2)c(CSC2=NCN(CC3CCCCC3)CN2)c1 [Compound 52, 6,6′-(((4-Bromo-1,2-phenylene)bis(methylene))bis(sulfanediyl))bis(3-(cyclohexylmethyl)-1,2,3,4-tetrahydro-1,3,5-triazine)]
remaining activity at 10 µM (IDO in A431 cells): 1%
remaining activity at 10 µM (TDO in A172 cells): 5%
tumor growth (ratio of tumor volume to start day) [1]: can suppress tumor growth

Br.N#Cc1ccc(CNC(=O)c2ccc(Br)cc2CSC(=N)N)cc1 [Compound 76, 5-Bromo-2-((4-cyanobenzyl)carbamoyl)benzyl carbamimidothioate hydrobromide]
remaining activity at 10 µM (IDO in A431 cells): 82%
remaining activity at 10 µM (TDO in A172 cells): 24%
tumor growth (ratio of tumor volume to start day) [1]: can suppress tumor growth

Br.Br.N/C(=N\c1ccc(F)cc1F)SCc1ccccc1CS/C(N)=N/c1ccc(F)cc1F [Compound 95, 1,2-Phenylenebis(methylene) (E,E)-bis(N-(2,4-difluorophenyl)carbamimidothioate)dihydrobromide]
remaining activity at 10 µM (IDO in A431 cells): 2%
remaining activity at 10 µM (TDO in A172 cells): -7%
tumor growth (ratio of tumor volume to start day) [1]: can suppress tumor growth

Br.N#Cc1ccc(CNC(=O)c2cc(Br)ccc2CSC(=N)N)cc1 [Compound 103, 4-Bromo-2-((4-cyanobenzyl)carbamoyl)benzyl carbamimidothioate hydrobromide]
remaining activity at 10 µM (IDO in A431 cells): 3%
remaining activity at 10 µM (TDO in A172 cells): 18%
tumor growth (ratio of tumor volume to start day) [1]: can suppress tumor growth
